According to patent publication EP0511033A1, “Extracts of the common lady's mantle, their preparation and their applications” (SYNTHELABO, priority 1991, dated 1992):

Legend:
[1] = Free radical scavenging test on diphénylpicrylhydrazyl hydrate (decrease of absorbance at 513 nm); format: biochemical
From the text: Les extraits d'Alchemille obtenus selon l'invention présentent également des activités anti-radicalaires. On a démontré ces activités in vitro par deux méthodes de dosage. On a réalisé la première méthode de dosage sur un radical libre : le diphénylpicrylhydrazyl hydrate qui absorbe dans le violet à 513 nm. (Lamaison JL., Petitjean-Freytet C., Carnat P., Carnat A., 1988, Plantes Médicinales et Phytothérapie, 22, (4), p. 231-234). Un composé anti-radicalaire, piégeur des radicaux libres, entraîne une inhibition d'apparition de coloration du radical libre témoin, donc une diminution de la densité optique de ce radical libre. L'activité anti-radicalaire d'une substance s'exprime par la diminution du pourcentage d'absorbance du radical libre testé.Dans ces conditions de test, un extrait d'Alchemille obtenu selon l'invention présente une activité similaire à la vitamine E qui est la substance de référence la plus utilisée.

[2] = Superoxide anion scavenging test (NADH/PMS generation, NBT reduction to diformazan, spectrophotometry); format: biochemical; details: for concentration donnant 90 % d'inhibition: 90 % inhibition of diformazan coloration
From the text: On a également testé l'activité anti-radicalaire sur l'anion superoxyde généré par la réaction de NADH (nicotinamide adénine dinucléotide hydrate) sur le PMS (phénazine méthosulfate). L'anion superoxyde provoque la réduction du NBT (Nitrobleu de Tétrazolium) en diformazan, de coloration bleu intense. On dose celui-ci par spectrophotométrie (Roback J., Gryglewski RJ., Biomedical Pharmacology, 1988, 37, (5), P. 837-841). On exprime l'activité anti-radicalaire d'une substance en pourcentage d'inhibition du développement de coloration due au diformazan. Par cette méthode de dosage, les extraits d'Alchemille présentent une activité bien supérieure aux 2 témoins testés, qui sont la quercétine et l'acide rosmarinique. Ainsi, on obtient 90 % d'inhibition avec des concentrations respectivement de 0,5 mg/ml d'acide rosmarinique et de quercétine, alors qu'on atteint ce niveau d'inhibition à une concentration de 0,1 mg/ml d'extrait aqueux d'Alchemille. Cet extrait est donc, dans ces conditions, 5 fois plus actif que les 2 témoins qui sont les plus actifs parmi les substances testées.

Row | Molecule | activité anti-radicalaire (comparison in words) ([1]; compared with vitamine E) | INHIBITION % ([1]; concentration 0,01 mg/ml) | INHIBITION % ([1]; concentration 0,1 mg/ml) | INHIBITION % ([1]; concentration 0,05 mg/ml) | INHIBITION % ([1]; concentration 0,5 mg/ml) | INHIBITION % ([1]; concentration 1 mg/ml) | concentration donnant 90 % d'inhibition [2] | INHIBITION % ([2]; concentration 0,01 mg/ml) | INHIBITION % ([2]; concentration 0,1 mg/ml) | INHIBITION % ([2]; concentration 0,05 mg/ml) | INHIBITION % ([2]; concentration 0,5 mg/ml) | INHIBITION % ([2]; concentration 1 mg/ml)
1 | O=C(/C=C/c1ccc(O)c(O)c1)OC1CC(OC(=O)/C=C/c2ccc(O)c(O)c2)(C(=O)O)CC(O)C1O (centres unmarked) [Cynarine] | activité légèrement supérieure à la vitamine E | 16% | 89% | 60% | 94% | 96% |  |  |  |  |  | 
2 | O=C(/C=C/c1ccc(O)c(O)c1)O[C@H](Cc1ccc(O)c(O)c1)C(=O)O [Acide rosmarinique] |  |  |  |  |  |  | 0,5 mg/ml | 2% | 59% | 28% | 90% | 99%
3 | Vitamine E |  | 9% | 61% | 28% | 95% | 96% |  |  |  |  |  | 
4 | O=c1c(O)c(-c2ccc(O)c(O)c2)oc2cc(O)cc(O)c12 [Quercétine] |  |  |  |  |  |  | 0,5 mg/ml | 1% | 69% | 31% | 91% | 98%
